Measured values published in patent publication US6809120B1, “Composition containing propargylamine for enhancing cancer therapy” (University of Saskatchewan Technologies Inc., priority 1998, dated 2004).

Assays:
[1] = system: NW16 cells; assay: In vitro clonogenic cell survival assay in soft agar, modulation of cisplatinum toxicity in tumorigenic cells (RATIO method); type: cell-based, rat; settings: for enhanced killing of tumor cells in the presence of cisplatinum (result in words): in vitro fibroblast model
Source text: The protocol detailed below can be used for any normal/tumorigenic cell pair which will attach to plastic. Non-adherent lines (which includes most tumor cells, including NW16; consult references 5-10) require quantitation in soft agar. The present experiments are based on i) rat2 cells, a phenotypically normal, established rat fibroblast line and, ii) a tumorigenic derivative thereof, NW16 cells, which are rat2 cells transformed by a Fujinami sarcoma virus oncogene (see work of A. Pawson and P130^gag-fps). Rat2 and NW16 cells are maintained in a sub-confluent randomly-proliferating state in Dulbecco's modified minimal essential media with 10% (vol/vol) calf serum in plates incubated at 37° C. in a humidified CO2 (10%) incubator. All experiments reported rely on clonogenic cell survival assays (see references 4-6). Assays using rat2 (normal cells) were performed as follows: cells are exposed, in 10 cm culture dishes, to various drugs in media plus serum for varying lengths of time; seeding is at varying cell numbers, over log10 ranges, depending upon the degree of killing anticipated. [For the figure presented, incubation was for 72 hours prior to washing and assessment of clonogenic survival]. Both control and the experimental cultures are then gently washed, twice, with phosphate buffered saline, then once more with media minus serum, and then left in media plus serum, undisturbed until macroscopic colonies appear (7-9 days of incubation). The colonies are then fixed and stained with saturated methylene blue in 50% methanol and counted. The number of colonies, evaluated from 2 or more sets of duplicate cultures seeded at initial densities differing by factors of 10, are determined and converted to relative number of colonies, using the 0-hour control value as 1.0. Assays of NW16 cells were similar; however, because these cells are poorly adherent, following drug exposure, the washing procedure is modified, as is the quantitation of survivors step. In the latter case, quantitation requires plating the cells in soft agar (references 5-10). […]

[2] = system: rat2 cells; assay: In vitro clonogenic cell survival assay, modulation of cisplatinum toxicity in normal cells (RATIO method); type: cell-based, rat; settings: with cisplatinum
Source text: The protocol detailed below can be used for any normal/tumorigenic cell pair which will attach to plastic. Non-adherent lines (which includes most tumor cells, including NW16; consult references 5-10) require quantitation in soft agar. The present experiments are based on i) rat2 cells, a phenotypically normal, established rat fibroblast line and, ii) a tumorigenic derivative thereof, NW16 cells, which are rat2 cells transformed by a Fujinami sarcoma virus oncogene (see work of A. Pawson and P130^gag-fps). Rat2 and NW16 cells are maintained in a sub-confluent randomly-proliferating state in Dulbecco's modified minimal essential media with 10% (vol/vol) calf serum in plates incubated at 37° C. in a humidified CO2 (10%) incubator. All experiments reported rely on clonogenic cell survival assays (see references 4-6). Assays using rat2 (normal cells) were performed as follows: cells are exposed, in 10 cm culture dishes, to various drugs in media plus serum for varying lengths of time; seeding is at varying cell numbers, over log10 ranges, depending upon the degree of killing anticipated. [For the figure presented, incubation was for 72 hours prior to washing and assessment of clonogenic survival]. Both control and the experimental cultures are then gently washed, twice, with phosphate buffered saline, then once more with media minus serum, and then left in media plus serum, undisturbed until macroscopic colonies appear (7-9 days of incubation). The colonies are then fixed and stained with saturated methylene blue in 50% methanol and counted. The number of colonies, evaluated from 2 or more sets of duplicate cultures seeded at initial densities differing by factors of 10, are determined and converted to relative number of colonies, using the 0-hour control value as 1.0. Assays of NW16 cells were similar; however, because these cells are poorly adherent, following drug exposure, the washing procedure is modified, as is the quantitation of survivors step. In the latter case, quantitation requires plating the cells in soft agar (references 5-10).
A simplified presentation of the data, by the RATIO method, is show in FIG. 1. […] Ratios greater than unity indicate that the modulator has conferred a protective response, whereas ratios less than unity indicate an enhanced cell killing.

[3] = system: normal femoral bone marrow cells (CFU-C/GM); assay: In vivo assessment of anticancer drug modulators: relative cell survival of normal femoral bone marrow cells in P388-bearing mice; settings: for toxicity of cisplatinum to the marrow cells in the presence of modulator / protection of normal bone marrow cells (result in words): DBA/2J mice with P388, ip; for toxicity of cisplatinum to the marrow cells in the presence of modulator: cisplatinum 0.2 mg plus modulator, 48 h; for protection of normal bone marrow cells (result in words): with cisplatinum 0.2 mg, Histidinol 5 mg/injection or R-2HPA 0.38 ug/injection x5, 48 h after treatment, FIG. 2
Description: (§1) Seven groups of mice were treated and assessed in this model as follows:
(§2) P388 cells (1 million) were injected into the tail vein of 22 female DBA/2J mice (Protocol first developed in reference 6 and 8). The mice were then randomly divided into the above groups and injected (ip) with drugs 96 h later. Doses were cisplatinum 0.2 mg at 0 hour; Histidinol 5 mg/injection and R-2HPA 0.38 ug/injection; administered 5 times at −2, 0, +2, +4, and +6 hours. 48 h after drug treatment, cells from the femurs of the mice were harvested, washed and plated (at log10 dilutions) so as to allow quantitative and specific relative cell survival values to be generated for the responses of normal femoral bone marrow cells (specifically, CFU-C/GM or granulocyte/macrophage precursor cells) and clonogenic P388 leukemia cells (8).

[4] = system: P388 leukemia cells; assay: In vivo assessment of anticancer drug modulators: relative cell survival of clonogenic P388 leukemia cells in femurs of mice; settings: DBA/2J mice; for increase of cisplatinum toxicity to the leukemia cells in the presence of modulator / enhanced killing by cisplatinum of P388 cells (result in words): ip, 48 h; for increase of cisplatinum toxicity to the leukemia cells in the presence of modulator: cisplatinum 0.2 mg plus modulator; for enhanced killing by cisplatinum of P388 cells (result in words): with cisplatinum 0.2 mg, Histidinol 5 mg/injection or R-2HPA 0.38 ug/injection x5, FIG. 3
Description: as §1, §2

C#CCN(C)[C@H](C)CCCCC [R-2HMP, R-2-heptyl-methylpropargylamine]
concentration at which the effect reverses to a protective effect in tumorigenic cells ([1]; NW16 tumorigenic cells, with cisplatinum, FIG. 1): ≥ 10^−9 M
enhanced killing of tumor cells in the presence of cisplatinum (result in words) [1]: enhance the killing of tumor cells
protection of normal fibroblasts from cisplatinum (result in words) ([2]; FIG. 1): protect normal cells

C#CCN[C@H](C)CCCCC [R-2HPA, R-2-heptyl-propargylamine]
enhanced killing of tumor cells in the presence of cisplatinum (result in words) [1]: enhance the killing of tumor cells
toxicity of cisplatinum to the marrow cells in the presence of modulator [3]: essentially eliminated
protection of normal bone marrow cells (result in words) [3]: effective at protecting normal bone marrow cells
protection of normal fibroblasts from cisplatinum (result in words) ([2]; FIG. 1): protect normal cells
protection of normal fibroblasts from cisplatinum (result in words) ([2]; FIG. 1, listed as R-2BPA): more potent
increase of cisplatinum toxicity to the leukemia cells in the presence of modulator [4]: ~1000 fold
enhanced killing by cisplatinum of P388 cells (result in words) [4]: enhanced the killing by cisplatinum of P388 cells
therapeutic index between protection of healthy normal cells and killing of cancerous cells ([4]; R-2HPA 0.38 ug dose with cisplatinum): about 50,000

C#CCN(C)[C@@H](C)CCCCC [S-2HMP]
protection of normal fibroblasts from cisplatinum (result in words) ([2]; FIG. 1): inactive

N.N.[Cl][Pt][Cl] [cisplatinum]
effectiveness at killing normal marrow cells relative to intrafemoral leukemia cells, drug used alone ([3]; cisplatinum 0.2 mg ip alone, DBA/2J mice with P388, 48 h): about 100 times

N[C@H](CO)Cc1c[nH]cn1 [histidinol, L-histidinol, reference compound]
toxicity of cisplatinum to the marrow cells in the presence of modulator [3]: essentially eliminated
protection of normal bone marrow cells (result in words) [3]: effective at protecting normal bone marrow cells
protection of normal fibroblasts from cisplatinum (result in words) ([2]; FIG. 1): exhibits similar properties
increase of cisplatinum toxicity to the leukemia cells in the presence of modulator [4]: ~1000 fold
enhanced killing by cisplatinum of P388 cells (result in words) [4]: enhanced the killing by cisplatinum of P388 cells

R-deprenyl [reference compound]
protection of normal fibroblasts from cisplatinum (result in words) ([2]; FIG. 1): less efficacious
